We go through six compounds from patent US11155586B2, “Cystine knot scaffold platform” (Genentech, Inc., priority 2015, dated 2021).

Positions of bridges follow the written chain, without caps; N, C: chain ends. Non-standard residues stand in square brackets, D forms with d. Residues, ends and D or L forms follow the SMILES beside them. PEG6 = NCCOCCOCCOCCOCCOCCOCCC(=O)O; Pra = C#CC[C@H](N)C(=O)O

For assay [1], the target named is T1, hVEGF(8-109) (Homo sapiens, UniProt P15692).
T1 construct: hVEGF(8-109) or BSA were coated on 384-well MAXISORP™ immunoplates
T1 sequence (P15692 214-315): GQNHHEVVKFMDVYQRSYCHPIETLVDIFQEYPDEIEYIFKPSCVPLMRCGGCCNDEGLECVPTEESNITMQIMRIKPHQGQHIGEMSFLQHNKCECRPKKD
The assay is described as follows: Spot phage ELISA. Format: binding. Here is the method:
After four rounds of binding selection, individual phage clones were picked and inoculated into 450 μl 2YT media containing 50 µg/ml Carbenecillin and M13-KO7 helper phage in 96-well blocks, which were grown at 37° C. overnight. The supernatant was analyzed with spot phage ELISA as follows: hVEGF(8-109) or BSA were coated on 384-well MAXISORP™ immunoplates and phage supernatant diluted (1:3) with PBT buffer was added to the wells. The plates were washed and bound phage was detected with anti-M13-HRP followed by TMB substrate. In these assays, phage binding to BSA alone was tested in parallel to assess background binding. Clones whose binding signals for hVEGF-A (8-109) were more than 3 times higher than to BSA (background) were considered positive. Positive clones were subjected to DNA sequence analysis.

Assay [2] concerns the target T2, hVEGF-A (8-109) (Homo sapiens, UniProt P15692).
T2 sequence (P15692 34-135 isoform P15692-4): T1 sequence (P15692 214-315)
Put plainly: SPR binding assay (BIACORE 3000, 37° C.). On the procedure:
Depending on the format of the assay either a streptavidin sensor (SA) or a dextran-coated (CM5) sensor was utilized as described below.
For use with the SA sensor, VEGF-A was first biotinylated (no more than 2 biotin/VEGF-A) by incubating the protein with EZ-link NHS-PEG4-Biotin (Pierce) in a 1:1.5 molar ratio respectively, in PBS for 2 hours on ice. Reaction was then quenched by addition of 10 molar excess of Glycine pH 8.0 and the sample was buffer exchanged into PBS using an Amicon 0.5 mL 3000 MWCO ultra-centrifugal filters (EMD Millipore). The biotinylation state of the protein was verified by LC-MS analysis. Biotinylated VEGF-A was then captured on the surface until a resonance unit (RU) signal of about ˜400. For immobilization of VEGF-A on CM5 sensor, the surface was first activated with a mixture of N-ethyl-N′-(3-dimethylaminopropyl)carbodiimide hydrochloride and N-hydroxysuccinimide (EDC/NHS) according to the supplier instructions. VEGF-A was then diluted into coupling buffer (0.1 M Acetate Buffer, pH 5.0) and injected until the signal reached about ˜400 RU followed by a wash with 1 M ethanolamine pH 8.0 to quench remaining activated sites.
Following the capture step, a series of the peptide concentrations were prepared in HBS-EP buffer with matching DMSO concentrations to 0.1% and injected at a flow rate of […]. The resulting sensorgrams were then analyzed using a 1:1 binding model to obtain kinetic data and affinities using Scrubber 2.0 (BioLogic Software).

Setting [3] is: Table 37, surface plasmon resonance, VEGF-A.
[4] abbreviates: loop 2 variants based on VEGF_CKP9.63 framework, Table 27.

`CC[C@H](C)[C@@H]1NC(=O)[C@H](CC(N)=O)NC(=O)[C@@H](NC(=O)CN)CSSC[C@@H](C(=O)N[C@H](C(=O)N[C@H]2CSSC[C@@H](C(=O)NCC(=O)O)NC(=O)[C@H](CO)NC(=O)[C@H](CCC(N)=O)NC(=O)[C@H](Cc3ccc(O)cc3)NC(=O)[C@H](Cc3ccc(O)cc3)NC(=O)[C@H](CCC(N)=O)NC2=O)C(C)C)NC(=O)CNC(=O)[C@H](C)NC(=O)[C@H](CC(C)C)NC(=O)[C@@H]2CSSC[C@H](NC(=O)CNC(=O)[C@H](Cc3c[nH]c4ccccc34)NC(=O)[C@H](Cc3ccccc3)NC(=O)[C@@H]3CCCN3C(=O)[C@H](CC(C)C)NC(=O)[C@H](CCSC)NC1=O)C(=O)NCC(=O)N[C@@H](CCC(N)=O)C(=O)N[C@@H](CO)C(=O)N[C@@H](Cc1ccccc1)C(=O)N[C@@H](CCC(=O)O)C(=O)N2` [VEGF_CKP9.54.1] (H-GCNIMLPFWGCGQSFECLAGCVCQYYQSCG-OH; disulfide 2-21, 11-17, 23-29 (inferred); N-terminus and C-terminus assumed): the “S/N (signal to noise ratio as compared to BSA control)” value in assay [1] (Table 26) was determined as 29.9. This compound also registered an ELISA in assay [1] (loop 2 variants based on 9.54 framework, Table 26) of 2.4. The compound further came in with a kd in assay [2] (setting [3]) of 0.36.
With `CSCC[C@@H]1NC(=O)[C@H](C(C)C)NC(=O)[C@H](CC(=O)O)NC(=O)[C@@H](NC(=O)CN)CSSC[C@@H](C(=O)N[C@H](C(=O)N[C@H]2CSSC[C@@H](C(=O)NCC(=O)O)NC(=O)[C@H](CO)NC(=O)[C@H](CC(N)=O)NC(=O)[C@H](Cc3ccc(O)cc3)NC(=O)[C@H](Cc3c[nH]c4ccccc34)NC(=O)[C@H](Cc3c[nH]cn3)NC2=O)C(C)C)NC(=O)CNC(=O)[C@H](C)NC(=O)[C@H](CC(C)C)NC(=O)[C@@H]2CSSC[C@H](NC(=O)CNC(=O)[C@H](Cc3c[nH]c4ccccc34)NC(=O)[C@H](Cc3ccc(O)cc3)NC(=O)[C@@H]3CCCN3C(=O)[C@H](CCC(N)=O)NC1=O)C(=O)NCC(=O)N[C@@H](CCC(=O)O)C(=O)N[C@@H](CO)C(=O)N[C@@H](CC(C)C)C(=O)N[C@@H](CO)C(=O)N2` [VEGF_CKP9.63.69] (H-GCDVMQPYWGCGESLSCLAGCVCHWYNSCG-OH; disulfide 2-21, 11-17, 23-29 (inferred); N-terminus and C-terminus assumed), the “S/N (signal to noise ratio as compared to BSA control)” value in assay [1] (Table 27) was found to be 23.7. This compound displayed an ELISA in assay [1] (setting [4]) of 2.9. The compound also yielded a kd in assay [2] (hVEGF-A (8-109), Table 29) of 0.20.
With `CSCC[C@@H]1NC(=O)[C@H](CC(C)C)NC(=O)[C@H](CCC(N)=O)NC(=O)[C@@H](NC(=O)CN)CSSC[C@@H](C(=O)N[C@H](C(=O)N[C@H]2CSSC[C@@H](C(=O)NCC(=O)O)NC(=O)[C@H](CO)NC(=O)[C@H](CCC(N)=O)NC(=O)[C@H](Cc3ccc(O)cc3)NC(=O)[C@H](Cc3c[nH]c4ccccc34)NC(=O)[C@H](Cc3c[nH]cn3)NC2=O)C(C)C)NC(=O)CNC(=O)[C@H](C)NC(=O)[C@H](CC(C)C)NC(=O)[C@@H]2CSSC[C@H](NC(=O)CNC(=O)[C@H](Cc3c[nH]c4ccccc34)NC(=O)[C@H](Cc3ccccc3)NC(=O)[C@@H]3CCCN3C(=O)[C@H](CCC(N)=O)NC1=O)C(=O)N[C@@H](CCCCN)C(=O)N[C@@H](CCC(N)=O)C(=O)N[C@@H](CC(=O)O)C(=O)N[C@@H](CO)C(=O)N[C@@H](CC(=O)O)C(=O)N2` [VEGF_CKP9] (H-GCQLMQPFWGCKQDSDCLAGCVCHWYQSCG-OH; disulfide 2-21, 11-17, 23-29 (inferred); N-terminus and C-terminus assumed), the “S/N (signal to noise ratio as compared to BSA control)” value in assay [1] (Table 19) is 36.0; in assay [1] (Table 22) it was 7.4; in assay [1] (Table 23), 11.6; in assay [1] (Table 24), 7.4. The ELISA in assay [1] (VEGF_CKP9 Loop1/Loop5 affinity-matured variants, Table 24) is listed as 0.4; in assay [1] (VEGF_CKP9 Loop1 affinity-matured variants, Table 22), 0.4; in assay [1] (VEGF_CKP9 Loop5 affinity-matured variants, Table 23), 0.9; in assay [1] (spot phage ELISA signal, EETI-II-based binders against hVEGF-A, Table 19), 3.3. Further, the kd in assay [2] (setting [3]) came out at 40.
Regarding `CSCC[C@@H]1NC(=O)[C@H](CC(=O)O)NC(=O)[C@H](CCCNC(=N)N)NC(=O)CNC(=O)[C@@H]2CSSC[C@H](NC(=O)[C@H](CC(=O)O)NC1=O)C(=O)N[C@@H](CC(C)C)C(=O)N[C@@H](C)C(=O)NCC(=O)N[C@H](C(=O)N[C@H](C(=O)N[C@H]1CSSC[C@@H](C(=O)NCC(=O)O)NC(=O)[C@H](CO)NC(=O)[C@H](CC(N)=O)NC(=O)[C@H](Cc3ccc(O)cc3)NC(=O)[C@H](Cc3c[nH]c4ccccc34)NC(=O)[C@H](Cc3c[nH]cn3)NC1=O)C(C)C)CSSC[C@H](NC(=O)CN)C(=O)N[C@@H](CC(=O)O)C(=O)N[C@@H](C(C)C)C(=O)N[C@@H](CCSC)C(=O)N[C@@H](CCC(N)=O)C(=O)N1CCC[C@H]1C(=O)N[C@@H](Cc1ccc(O)cc1)C(=O)N[C@@H](Cc1c[nH]c3ccccc13)C(=O)NCC(=O)N2` [VEGF_CKP9.63.27] (H-GCDVMQPYWGCGRDMDCLAGCVCHWYNSCG-OH; disulfide 2-21, 11-17, 23-29 (inferred); N-terminus and C-terminus assumed), in assay [1] (Table 27), the “S/N (signal to noise ratio as compared to BSA control)” value came out at 26.0. Besides, the ELISA in assay [1] (setting [4]) turned out to be 2.1. Further, the kd in assay [2] (hVEGF-A (8-109), Table 29) worked out at 0.15.
Consider `C#CC[C@H](N)C(=O)NCCOCCOCCOCCOCCOCCOCCC(=O)N[C@H]1CSSC[C@@H](C(=O)N[C@H](C(=O)N[C@H]2CSSC[C@@H](C(=O)NCC(=O)O)NC(=O)[C@H](CO)NC(=O)[C@H](CCC(N)=O)NC(=O)[C@H](Cc3ccc(O)cc3)NC(=O)[C@H](Cc3ccc(O)cc3)NC(=O)[C@H](CCC(N)=O)NC2=O)C(C)C)NC(=O)CNC(=O)[C@H](C)NC(=O)[C@H](CC(C)C)NC(=O)[C@@H]2CSSC[C@H](NC(=O)CNC(=O)[C@H](Cc3c[nH]c4ccccc34)NC(=O)[C@H](Cc3ccccc3)NC(=O)[C@@H]3CCCN3C(=O)[C@H](CC(C)C)NC(=O)[C@H](CCSC)NC(=O)[C@H]([C@@H](C)CC)NC(=O)[C@H](CC(N)=O)NC1=O)C(=O)NCC(=O)N[C@@H](CCCNC(=N)N)C(=O)N[C@@H](CC(=O)O)C(=O)N[C@@H](Cc1ccccc1)C(=O)N[C@@H](CCC(=O)O)C(=O)N2` [VEGF_CKP9.54.90-Alkyn] (H-[Pra][PEG6]CNIMLPFWGCGRDFECLAGCVCQYYQSCG-OH; disulfide 3-22, 12-18, 24-30; N-terminus and C-terminus assumed), for which the kd in assay [2] (setting [3]) was determined as 0.27.
As to `CSCC[C@@H]1NC(=O)[C@H](C(C)C)NC(=O)[C@H](CC(=O)O)NC(=O)[C@@H](NC(=O)CN)CSSC[C@@H](C(=O)N[C@H](C(=O)N[C@H]2CSSC[C@@H](C(=O)NCC(=O)O)NC(=O)[C@H](CO)NC(=O)[C@H](CC(N)=O)NC(=O)[C@H](Cc3ccc(O)cc3)NC(=O)[C@H](Cc3c[nH]c4ccccc34)NC(=O)[C@H](Cc3c[nH]cn3)NC2=O)C(C)C)NC(=O)CNC(=O)[C@H](C)NC(=O)[C@H](CC(C)C)NC(=O)[C@@H]2CSSC[C@H](NC(=O)CNC(=O)[C@H](Cc3c[nH]c4ccccc34)NC(=O)[C@H](Cc3ccc(O)cc3)NC(=O)[C@@H]3CCCN3C(=O)[C@H](CCC(N)=O)NC1=O)C(=O)NCC(=O)N[C@@H](CCC(=O)O)C(=O)N[C@@H](CC(N)=O)C(=O)N[C@@H](Cc1ccccc1)C(=O)N[C@@H](CC(C)C)C(=O)N2` [VEGF_CKP9.63.1] (H-GCDVMQPYWGCGENFLCLAGCVCHWYNSCG-OH; disulfide 2-21, 11-17, 23-29 (inferred); N-terminus and C-terminus assumed), the “S/N (signal to noise ratio as compared to BSA control)” value in assay [1] (Table 27) is listed as 25.2. Moreover, the ELISA in assay [1] (setting [4]) turned out to be 2.0. The kd in assay [2] (hVEGF-A (8-109), Table 29) came out at 0.37.
